The values below come from PMC6309379 (Journal of medicinal chemistry, 2018).

One assay deals with BRD4-BD1 (Homo sapiens, UniProt O60885). Nature of the assay: BROMOscan. The format is binding. The settings on record: 1 uM, control DMSO.
The test system of a further assay is PLK kinases (PLK1–3). The assay can be described thus: KINOMEscan. It is filed as binding. The settings on record: 1 uM, control DMSO.
The subject of the next assay is MOLM13 cells. The assay can be described thus: Cell cycle study, propidium iodide staining. The format is cell-based, human. As to conditions: MOLM13, 1 μM, 24 h.

In the case of `COc1cc(C(=O)NC2CCN(C)CC2)ccc1Nc1ncc2c(n1)N(C1CCCC1)[C@H](C)C(=O)N2C` [Compound 5, (R)-4-((8-cyclopentyl-5,7-dimethyl-6-oxo-5,6,7,8-tetrahydropteridin-2-yl)amino)-3-methoxy-N-(1-methylpiperidin-4-yl)benzamide], the “BRD4-BD1 % of control” value on BRD4-BD1 is 12 % of control. Further, the “PLK kinases % of control” value with PLK kinases (PLK1–3) is 0.3–0.5 % of control.
For `C[C@@H]1C(=O)N(C)c2cnc(Nc3ccc(C(=O)NC4CCN(C)CC4)cc3OC3CCCC3)nc2N1C1CCCC1` [Compound 23, (R)-4-((8-cyclopentyl-5,7-dimethyl-6-oxo-5,6,7,8-tetrahydropteridin-2-yl)amino)-3-(cyclopentyloxy)-N-(1-methylpiperidin-4-yl)benzamide], the cell cycle arrest result in the assay with MOLM13 cells is given as “cell cycle arrest in the G1/G2 stage of the cell cycle”.
On the same count and under the same terms, for `CC[C@@H]1C(=O)N(C)c2cnc(Nc3ccc(C(=O)NC4CCN(C)CC4)cc3OC)nc2N1C1CCCC1` [BI-2536, reference compound] the value was “G1/G2 arrest”.
